According to ChEMBL document CHEMBL3045711, “Neonicotinoid insecticides: oxidative stress in planta and metallo-oxidase inhibition” (J Agric Food Chem, 2011):

Assays:
Tyrosinase = molecular target: T1, Tyrosinase (Agaricus bisporus, UniProt O42713)
T1 sequence (O42713 whole entry): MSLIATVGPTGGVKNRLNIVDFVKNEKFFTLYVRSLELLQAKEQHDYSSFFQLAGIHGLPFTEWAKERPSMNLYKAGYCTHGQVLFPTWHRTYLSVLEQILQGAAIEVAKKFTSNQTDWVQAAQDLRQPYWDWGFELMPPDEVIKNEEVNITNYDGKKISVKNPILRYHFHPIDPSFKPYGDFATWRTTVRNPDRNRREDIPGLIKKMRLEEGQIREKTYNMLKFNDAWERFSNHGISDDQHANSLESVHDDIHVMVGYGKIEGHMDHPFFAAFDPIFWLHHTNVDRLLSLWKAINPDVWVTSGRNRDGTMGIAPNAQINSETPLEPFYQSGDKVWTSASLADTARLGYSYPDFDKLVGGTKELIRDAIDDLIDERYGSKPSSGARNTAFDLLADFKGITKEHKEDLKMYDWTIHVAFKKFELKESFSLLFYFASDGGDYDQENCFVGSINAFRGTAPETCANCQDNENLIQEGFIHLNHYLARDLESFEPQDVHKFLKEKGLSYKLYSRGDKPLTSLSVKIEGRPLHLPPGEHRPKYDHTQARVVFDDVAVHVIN
Description: Inhibition of Agaricus bisporus (mushroom) tyrosinase

Aldehyde oxidase 1 = molecular target: T2, Aldehyde oxidase 1 (Oryctolagus cuniculus, UniProt P80456); assay type: ADME, tissue-based, Liver, Cytosol
T2 sequence (P80456 whole entry): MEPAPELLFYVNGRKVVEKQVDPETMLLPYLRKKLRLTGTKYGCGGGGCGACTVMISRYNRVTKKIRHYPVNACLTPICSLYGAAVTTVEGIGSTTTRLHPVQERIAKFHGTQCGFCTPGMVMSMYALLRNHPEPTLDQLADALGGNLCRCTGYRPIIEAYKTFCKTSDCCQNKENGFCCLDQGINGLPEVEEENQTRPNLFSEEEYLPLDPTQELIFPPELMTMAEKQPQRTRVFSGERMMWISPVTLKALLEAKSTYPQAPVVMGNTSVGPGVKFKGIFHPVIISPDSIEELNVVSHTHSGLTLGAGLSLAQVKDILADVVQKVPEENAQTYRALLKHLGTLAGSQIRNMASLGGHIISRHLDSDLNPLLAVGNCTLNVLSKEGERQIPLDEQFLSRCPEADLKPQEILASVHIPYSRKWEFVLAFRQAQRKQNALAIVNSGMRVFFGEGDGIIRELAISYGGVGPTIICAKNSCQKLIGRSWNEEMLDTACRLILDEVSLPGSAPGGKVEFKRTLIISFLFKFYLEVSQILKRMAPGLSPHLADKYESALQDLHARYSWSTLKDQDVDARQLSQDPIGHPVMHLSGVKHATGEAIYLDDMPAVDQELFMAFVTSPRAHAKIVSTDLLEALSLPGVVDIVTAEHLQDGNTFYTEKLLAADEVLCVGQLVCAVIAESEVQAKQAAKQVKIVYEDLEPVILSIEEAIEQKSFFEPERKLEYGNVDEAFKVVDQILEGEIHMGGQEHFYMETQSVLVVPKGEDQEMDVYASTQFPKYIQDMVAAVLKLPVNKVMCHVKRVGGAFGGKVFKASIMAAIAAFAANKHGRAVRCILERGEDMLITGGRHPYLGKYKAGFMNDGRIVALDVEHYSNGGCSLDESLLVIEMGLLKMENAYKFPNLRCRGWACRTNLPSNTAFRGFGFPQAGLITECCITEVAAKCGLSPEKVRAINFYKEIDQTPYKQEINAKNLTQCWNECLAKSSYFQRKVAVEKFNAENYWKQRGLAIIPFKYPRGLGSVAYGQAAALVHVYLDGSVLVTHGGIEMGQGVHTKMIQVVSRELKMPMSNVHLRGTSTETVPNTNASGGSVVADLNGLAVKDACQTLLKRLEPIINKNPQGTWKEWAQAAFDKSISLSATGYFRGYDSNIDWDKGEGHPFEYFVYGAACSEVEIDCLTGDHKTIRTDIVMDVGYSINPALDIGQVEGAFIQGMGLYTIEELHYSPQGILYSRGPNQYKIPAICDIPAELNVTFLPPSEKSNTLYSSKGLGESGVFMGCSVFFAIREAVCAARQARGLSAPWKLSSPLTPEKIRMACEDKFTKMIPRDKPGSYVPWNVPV
Description: Inhibition of Oryctolagus cuniculus (rabbit) AOX in liver cytosol

Spinacia oleracea = assay: Phytotoxicity against Spinacia oleracea (spinach) seedlings assessed as lesions at 100 ppm after 9 days; assay type: organism-based; conditions: in vivo, 216 h
Catalase = molecular target: T3, Catalase (Bos taurus, UniProt P00432); assay type: ADME, tissue-based, Liver
T3 sequence (P00432 whole entry): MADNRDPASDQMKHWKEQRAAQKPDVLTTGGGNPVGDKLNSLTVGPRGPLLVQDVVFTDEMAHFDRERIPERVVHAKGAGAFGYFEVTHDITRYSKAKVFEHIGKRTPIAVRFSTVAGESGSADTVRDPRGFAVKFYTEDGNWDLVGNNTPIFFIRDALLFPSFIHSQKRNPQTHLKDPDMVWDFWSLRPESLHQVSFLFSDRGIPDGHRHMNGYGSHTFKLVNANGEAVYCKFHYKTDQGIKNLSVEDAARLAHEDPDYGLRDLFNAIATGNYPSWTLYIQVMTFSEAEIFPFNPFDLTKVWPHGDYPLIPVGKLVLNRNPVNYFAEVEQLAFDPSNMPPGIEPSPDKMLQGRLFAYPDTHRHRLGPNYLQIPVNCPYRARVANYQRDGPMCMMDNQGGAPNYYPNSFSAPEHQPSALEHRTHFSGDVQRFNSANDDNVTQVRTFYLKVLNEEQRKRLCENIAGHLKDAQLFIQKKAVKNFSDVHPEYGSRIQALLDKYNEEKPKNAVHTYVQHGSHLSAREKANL
Description: Inhibition of Bos taurus (bovine) CAT in liver

Row | Compound | IC50 (Tyrosinase; read-out: IC50) [µM] | IC50 (Aldehyde oxidase 1) [µM] | Activity (Spinacia oleracea) | IC50 (Catalase) [µM] | IC50 (Tyrosinase)
1 | Oc1ncnc2[nH]ncc12 [ALLOPURINOL] | > 1000 | > 1000 | – | – | –
2 | O=Cc1ccc(Cl)nc1 [6-CHLORONICOTINALDEHYDE] | 770 | 720 | – | – | –
3 | C/C(=N\C#N)N(C)Cc1ccc(Cl)nc1 | 1740 | > 1000 | Toxic | – | –
4 | O=C(O)C1CCOC1 (stereo not drawn) | > 1000 | > 1000 | – | > 1000 | –
5 | O=Cc1ccco1 [FURFURAL] | 43 | 700 | – | – | –
6 | O=Cc1ccc(O)cc1 [4-HYDROXYBENZALDEHYDE] | 770 | 570 | – | – | –
7 | CCN(Cc1ccc(Cl)nc1)/C(=C/[N+](=O)[O-])NC | > 1000 | > 1000 | – | – | –
8 | O=Cc1cnc(Cl)s1 | 64 | 360 | – | – | –
9 | O=C(O)c1cccnc1 [NIACIN] | > 1000 | – | – | – | –
10 | O=C(c1ccc(OCCN2CCCCC2)cc1)c1c(-c2ccc(O)cc2)sc2cc(O)ccc12 [RALOXIFENE] | – | 1530 | – | – | ND(Insoluble)
11 | O=CC1CCOC1 (stereo not drawn) [TETRAHYDROFURAN-3-CARBALDEHYDE] | > 1000 | 360 | – | – | –
12 | O=Cc1ccoc1 [FURAN-3-CARBALDEHYDE] | 15 | 260 | – | – | –
13 | O=C(O)c1ccc(Cl)nc1 [6-CHLORONICOTINIC ACID] | > 1000 | > 1000 | – | > 1000 | –
14 | CN/C(=N\[N+](=O)[O-])NCc1cnc(Cl)s1 [CLOTHIANIDINE] | > 1000 | > 1000 | Toxic | – | –
15 | O=Cc1cccnc1 [NICOTINALDEHYDE] | 28 | 600 | – | – | –
16 | CN/C(=N/CC1CCOC1)N[N+](=O)[O-] (stereo not drawn) [DINOTEFURAN] | > 1000 | > 1000 | – | – | –
17 | O=C(O)c1ccccc1 [BENZOIC ACID] | 270 | > 1000 | – | > 1000 | –
18 | CN1COCN(Cc2cnc(Cl)s2)/C1=N\[N+](=O)[O-] [THIAMETHOXAM] | > 1000 | > 1000 | – | – | –
19 | N=C(N)NN [PIMAGEDINE] | – | – | – | 500 | –
20 | O=C(O)c1ccc(S)nc1 [6-MERCAPTONICOTINIC ACID] | 42 | > 1000 | – | > 1000 | –
21 | O=C(O)c1cnc(Cl)s1 | > 1000 | > 1000 | – | > 1000 | –
22 | O=C(O)c1ccc(Cl)cc1O | 520 | > 1000 | – | > 1000 | –
23 | O=Cc1cccnc1Cl [2-CHLORONICOTINALDEHYDE] | > 1000 | 350 | – | – | –
24 | O=C(O)c1cccnc1S [2-MERCAPTONICOTINIC ACID] | 80 | > 1000 | – | > 1000 | –
25 | O=Cc1ccccc1 [BENZALDEHYDE] | – | 660 | – | – | –
26 | O=Cc1cncs1 [THIAZOLE-5-CARBALDEHYDE] | 7 | 890 | – | – | –
